In ChEMBL document CHEMBL1201862, “PubChem BioAssay data set” (2004):
Activity calls are given as the source filed them.

Columns and labels:
[1] = molecular target: Dual specificity tyrosine-phosphorylation-regulated kinase 1A (Rattus norvegicus, UniProt Q63470); type: biochemical, Homo sapiens
Cytochrome P450 2C19 = Cytochrome P450 2C19 (Homo sapiens, UniProt P33261); assay: Cytochrome panel assay with activity outcomes. Panel member name: p450-cyp2c19 Compounds with AC50 equal or less than 10 uM are considered active; type: functional
Cytochrome P450 2C19, sequence (P33261 whole entry): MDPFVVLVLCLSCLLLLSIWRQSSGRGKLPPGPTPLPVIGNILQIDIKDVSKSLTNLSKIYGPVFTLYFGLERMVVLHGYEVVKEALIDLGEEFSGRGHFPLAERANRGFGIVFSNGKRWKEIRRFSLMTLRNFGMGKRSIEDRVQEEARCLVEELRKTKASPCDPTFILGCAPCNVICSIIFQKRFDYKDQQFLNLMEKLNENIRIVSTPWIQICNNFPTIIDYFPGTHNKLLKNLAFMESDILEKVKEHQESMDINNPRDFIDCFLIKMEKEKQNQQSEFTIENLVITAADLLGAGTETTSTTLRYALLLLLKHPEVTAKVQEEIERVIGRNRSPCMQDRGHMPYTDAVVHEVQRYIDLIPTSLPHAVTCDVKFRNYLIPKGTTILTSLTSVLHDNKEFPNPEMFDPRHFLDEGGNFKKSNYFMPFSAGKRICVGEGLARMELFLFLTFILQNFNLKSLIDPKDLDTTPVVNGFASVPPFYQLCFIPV

Cytochrome P450 1A2 = molecular target: T1, Cytochrome P450 1A2 (Homo sapiens, UniProt P05177);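 further: PubChem cytochrome P450 panel assay, CYP1A2 panel member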
T1 sequence (P05177 whole entry): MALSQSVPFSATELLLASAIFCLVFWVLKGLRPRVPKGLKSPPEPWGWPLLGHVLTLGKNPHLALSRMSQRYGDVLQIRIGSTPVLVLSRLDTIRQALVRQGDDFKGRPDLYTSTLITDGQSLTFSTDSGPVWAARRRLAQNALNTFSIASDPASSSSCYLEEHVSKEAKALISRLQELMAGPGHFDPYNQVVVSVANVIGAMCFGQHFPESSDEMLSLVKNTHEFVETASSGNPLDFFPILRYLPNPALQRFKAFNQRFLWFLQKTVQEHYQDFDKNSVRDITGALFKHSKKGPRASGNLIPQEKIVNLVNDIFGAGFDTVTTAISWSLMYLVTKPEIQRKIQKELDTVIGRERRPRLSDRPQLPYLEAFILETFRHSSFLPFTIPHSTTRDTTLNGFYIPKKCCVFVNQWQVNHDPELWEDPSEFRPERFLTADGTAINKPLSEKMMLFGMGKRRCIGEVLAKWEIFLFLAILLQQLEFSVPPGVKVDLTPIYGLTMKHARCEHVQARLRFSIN

Cytochrome P450 3A4 = Cytochrome P450 3A4 (Homo sapiens, UniProt P08684);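 further: CYP3A4 tested as one member of a cytochrome P450 panel screen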
Cytochrome P450 3A4, sequence (P08684 whole entry): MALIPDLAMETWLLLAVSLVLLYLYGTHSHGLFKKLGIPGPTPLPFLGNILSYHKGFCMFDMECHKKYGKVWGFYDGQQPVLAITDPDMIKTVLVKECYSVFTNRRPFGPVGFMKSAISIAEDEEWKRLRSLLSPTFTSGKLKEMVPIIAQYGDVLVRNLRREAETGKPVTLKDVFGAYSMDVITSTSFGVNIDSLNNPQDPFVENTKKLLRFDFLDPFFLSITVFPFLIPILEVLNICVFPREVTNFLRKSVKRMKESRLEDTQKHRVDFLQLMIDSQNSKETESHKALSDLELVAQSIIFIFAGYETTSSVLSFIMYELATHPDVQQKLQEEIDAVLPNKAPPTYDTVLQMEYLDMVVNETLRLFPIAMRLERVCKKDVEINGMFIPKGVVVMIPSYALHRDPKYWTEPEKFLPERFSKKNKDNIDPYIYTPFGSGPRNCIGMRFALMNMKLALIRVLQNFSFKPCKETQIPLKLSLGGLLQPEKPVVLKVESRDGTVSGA

Phosphomannomutase 2 = Phosphomannomutase 2 (Homo sapiens, UniProt O15305); assay: Counter screen SAR assay for PMM2 inhibitors via a fluorescence intensity assay. [Related pubchem assays (depositor defined):AID1545, AID1574]
Phosphomannomutase 2, sequence (O15305 whole entry): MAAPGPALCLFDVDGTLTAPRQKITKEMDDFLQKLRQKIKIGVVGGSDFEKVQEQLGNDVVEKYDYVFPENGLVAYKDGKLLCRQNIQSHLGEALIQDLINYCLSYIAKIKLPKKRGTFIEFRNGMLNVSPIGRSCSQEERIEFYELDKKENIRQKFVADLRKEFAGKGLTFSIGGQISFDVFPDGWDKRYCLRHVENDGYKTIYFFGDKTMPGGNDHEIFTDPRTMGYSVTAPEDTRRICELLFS

[2] = molecular target: T2, Mannose-6-phosphate isomerase (Homo sapiens, UniProt P34949); assay: phosphomannose isomerase inhibition – biochemical, fluorescence intensity, confirmation (AID 1535)
T2 sequence (P34949 whole entry): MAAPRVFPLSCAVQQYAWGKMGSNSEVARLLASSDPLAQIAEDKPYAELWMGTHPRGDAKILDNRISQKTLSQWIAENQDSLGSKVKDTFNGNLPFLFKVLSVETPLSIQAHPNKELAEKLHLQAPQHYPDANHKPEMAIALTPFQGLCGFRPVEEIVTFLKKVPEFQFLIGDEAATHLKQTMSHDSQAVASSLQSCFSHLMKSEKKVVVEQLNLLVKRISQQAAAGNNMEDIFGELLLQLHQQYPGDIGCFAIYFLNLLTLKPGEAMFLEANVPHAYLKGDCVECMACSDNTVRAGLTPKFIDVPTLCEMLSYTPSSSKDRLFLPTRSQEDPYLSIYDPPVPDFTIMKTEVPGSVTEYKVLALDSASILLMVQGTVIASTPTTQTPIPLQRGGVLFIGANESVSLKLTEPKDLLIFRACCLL

[3] = molecular target: Voltage-gated inwardly rectifying potassium channel KCNH2 (Homo sapiens, UniProt Q12809); settings: Potency;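 further: confirmatory quantitative high-throughput screen measuring inhibition of hERG channel activity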
Voltage-gated inwardly rectifying potassium channel KCNH2, sequence (Q12809 whole entry): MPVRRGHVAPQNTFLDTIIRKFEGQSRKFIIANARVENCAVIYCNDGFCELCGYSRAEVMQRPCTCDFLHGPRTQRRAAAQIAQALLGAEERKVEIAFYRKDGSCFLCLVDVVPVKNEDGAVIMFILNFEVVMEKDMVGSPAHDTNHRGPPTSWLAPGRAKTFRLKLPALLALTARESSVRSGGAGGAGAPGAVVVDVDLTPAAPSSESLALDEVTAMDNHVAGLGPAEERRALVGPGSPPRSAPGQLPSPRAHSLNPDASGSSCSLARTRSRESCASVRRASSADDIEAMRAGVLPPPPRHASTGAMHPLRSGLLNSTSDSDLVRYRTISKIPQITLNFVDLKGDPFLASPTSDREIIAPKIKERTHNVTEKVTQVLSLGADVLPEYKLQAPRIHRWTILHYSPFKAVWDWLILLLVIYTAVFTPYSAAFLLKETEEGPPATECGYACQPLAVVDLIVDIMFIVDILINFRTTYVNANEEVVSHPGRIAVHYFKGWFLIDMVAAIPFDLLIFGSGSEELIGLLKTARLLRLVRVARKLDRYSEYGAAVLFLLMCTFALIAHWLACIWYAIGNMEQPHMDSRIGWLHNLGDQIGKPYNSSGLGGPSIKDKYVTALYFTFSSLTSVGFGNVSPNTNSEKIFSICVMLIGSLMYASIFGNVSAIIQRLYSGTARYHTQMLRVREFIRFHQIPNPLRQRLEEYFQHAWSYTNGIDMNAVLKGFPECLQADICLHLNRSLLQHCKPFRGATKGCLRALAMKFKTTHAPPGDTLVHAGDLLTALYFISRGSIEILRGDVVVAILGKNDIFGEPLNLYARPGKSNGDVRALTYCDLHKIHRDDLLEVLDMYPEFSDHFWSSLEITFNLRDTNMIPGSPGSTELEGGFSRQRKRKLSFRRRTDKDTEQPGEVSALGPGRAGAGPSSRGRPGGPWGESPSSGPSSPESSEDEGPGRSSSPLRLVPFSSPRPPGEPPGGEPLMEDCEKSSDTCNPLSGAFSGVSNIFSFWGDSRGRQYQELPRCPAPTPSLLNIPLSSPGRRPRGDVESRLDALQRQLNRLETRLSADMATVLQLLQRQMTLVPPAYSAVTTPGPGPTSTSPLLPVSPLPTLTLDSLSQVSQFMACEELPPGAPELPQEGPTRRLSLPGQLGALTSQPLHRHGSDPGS

[4] = decrease of insulin promoter-GFP reporter – imaging, high-content screening, mouse beta cells (AID 1628); type: functional; settings: MIN6
[5] = molecular target: T3, Corticotropin-releasing factor receptor 2/Corticotropin-releasing factor-binding protein (Homo sapiens, UniProt P24387+Q13324); assay: Dose Response confirmation of uHTS hits for small molecule antagonists of the CRF-binding protein and CRF-R2 receptor complex.; type: functional; settings: read-out: IC50_Mean
T3 sequence (Q13324 whole entry): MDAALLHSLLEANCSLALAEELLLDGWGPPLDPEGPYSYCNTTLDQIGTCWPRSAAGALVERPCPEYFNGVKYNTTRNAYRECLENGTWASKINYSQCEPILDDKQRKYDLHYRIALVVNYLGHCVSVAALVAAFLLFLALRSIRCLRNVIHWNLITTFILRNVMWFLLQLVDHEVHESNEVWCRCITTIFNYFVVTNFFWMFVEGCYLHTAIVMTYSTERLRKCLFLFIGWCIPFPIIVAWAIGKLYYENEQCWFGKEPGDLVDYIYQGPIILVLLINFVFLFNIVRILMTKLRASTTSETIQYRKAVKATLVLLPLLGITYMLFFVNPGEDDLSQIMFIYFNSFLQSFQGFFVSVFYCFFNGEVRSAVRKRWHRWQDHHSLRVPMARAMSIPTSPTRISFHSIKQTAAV
T3 sequence (P24387 whole entry): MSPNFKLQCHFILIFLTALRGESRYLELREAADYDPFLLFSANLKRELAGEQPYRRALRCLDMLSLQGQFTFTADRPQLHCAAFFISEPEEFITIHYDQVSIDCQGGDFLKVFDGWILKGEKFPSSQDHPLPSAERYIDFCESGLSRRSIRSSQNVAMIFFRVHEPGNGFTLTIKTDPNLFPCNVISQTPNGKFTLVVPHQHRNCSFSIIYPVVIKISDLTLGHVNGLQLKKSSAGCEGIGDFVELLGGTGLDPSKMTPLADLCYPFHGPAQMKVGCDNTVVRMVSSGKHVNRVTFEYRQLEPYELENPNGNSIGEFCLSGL

[6] = molecular target: T3, Corticotropin-releasing factor receptor 2/Corticotropin-releasing factor-binding protein; assay: activators of CRF receptor 2 with binding protein – uHTS hits, confirmation (AID 602473); type: functional; settings: read-out: EC50_Mean
[7] = blockers of CRF-binding protein–CRF-R2 complex – cell-based, uHTS hits, 384-well, dose response (AID 651639); type: functional, Homo sapiens; settings: read-out: IC50_Mean
[8] = MIN6 cell viability loss – mouse insulinoma, cytotoxicity control, dose response (AID 2122); type: functional;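 further: confirmatory high-throughput counterscreen run to flag cytotoxic compounds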
Phospholipase A2 = Phospholipase A2 (Homo sapiens, UniProt P04054); type: functional;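 further: confirmatory dose-response counterscreen on phospholipase A2, testing hits that came from an ultra-high-throughput screen for ATG4B inhibitors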
Phospholipase A2, sequence (P04054 whole entry): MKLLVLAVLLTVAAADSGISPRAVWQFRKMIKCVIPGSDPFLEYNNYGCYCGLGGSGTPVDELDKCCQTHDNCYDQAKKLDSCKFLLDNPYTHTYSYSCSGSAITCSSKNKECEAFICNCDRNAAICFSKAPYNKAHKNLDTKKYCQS

Cysteine protease ATG4B = Cysteine protease ATG4B (Homo sapiens, UniProt Q9Y4P1); type: functional;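 further: Fluorescence-based dose-response confirmation assay measuring inhibition of ATG4B activity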
Cysteine protease ATG4B, sequence (Q9Y4P1 whole entry, the tested form may be a part): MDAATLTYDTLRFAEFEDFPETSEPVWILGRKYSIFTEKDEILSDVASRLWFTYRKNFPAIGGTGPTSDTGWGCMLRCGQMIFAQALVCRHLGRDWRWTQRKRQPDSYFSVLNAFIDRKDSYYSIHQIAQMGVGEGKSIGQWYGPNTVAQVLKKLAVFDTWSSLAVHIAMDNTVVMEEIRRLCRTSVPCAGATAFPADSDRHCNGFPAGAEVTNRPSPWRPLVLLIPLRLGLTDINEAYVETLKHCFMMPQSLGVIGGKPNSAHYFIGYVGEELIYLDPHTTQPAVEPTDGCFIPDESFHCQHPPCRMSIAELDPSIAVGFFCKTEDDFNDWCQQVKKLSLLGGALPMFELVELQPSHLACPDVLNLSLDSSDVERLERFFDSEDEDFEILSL

[9] = molecular target: T4, Polyadenylate-binding protein 1 (Homo sapiens, UniProt P11940); assay: MLLE domain peptide-binding blockers, IC50 – biochemical, fluorescence polarization, FITC-PAM2 peptide, dose response (AID 602259); type: functional; settings: read-out: IC50_Mean
T4 sequence (P11940 whole entry, the tested form may be a part): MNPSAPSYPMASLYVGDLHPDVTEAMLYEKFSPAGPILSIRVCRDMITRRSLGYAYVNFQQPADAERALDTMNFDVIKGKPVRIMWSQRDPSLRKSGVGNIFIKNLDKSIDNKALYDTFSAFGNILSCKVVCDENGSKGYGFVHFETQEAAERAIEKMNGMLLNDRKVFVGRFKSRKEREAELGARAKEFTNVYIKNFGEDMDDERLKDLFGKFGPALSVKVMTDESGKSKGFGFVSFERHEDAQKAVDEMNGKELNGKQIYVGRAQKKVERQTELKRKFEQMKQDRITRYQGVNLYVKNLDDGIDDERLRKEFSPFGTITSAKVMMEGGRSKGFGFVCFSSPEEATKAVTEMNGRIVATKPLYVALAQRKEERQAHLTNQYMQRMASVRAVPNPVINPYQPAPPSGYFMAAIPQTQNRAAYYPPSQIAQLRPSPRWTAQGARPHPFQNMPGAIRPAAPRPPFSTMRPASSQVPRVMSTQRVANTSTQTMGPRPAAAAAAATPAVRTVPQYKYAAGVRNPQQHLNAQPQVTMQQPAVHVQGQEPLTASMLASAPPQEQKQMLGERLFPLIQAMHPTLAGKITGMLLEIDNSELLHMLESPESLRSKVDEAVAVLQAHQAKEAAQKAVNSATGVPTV

[10] = molecular target: T4, Polyadenylate-binding protein 1; assay: MLLE binding blockers, Cy5 peptide tracer – biochemical, fluorescence polarization, Cy5-PAM2 peptide, secondary, miRNA deadenylation inhibitor project, dose response (AID 602260); type: functional; settings: read-out: IC50_Mean
[11] = molecular target: Glucose-6-phosphate 1-dehydrogenase (Homo sapiens, UniProt P11413); assay: inhibition of Homo sapiens G6PD, dose series – biochemical, fluorescence, selectivity assay for P. falciparum G6PD inhibitor project, dose response (AID 504792); type: functional
Glucose-6-phosphate 1-dehydrogenase, sequence (P11413 whole entry): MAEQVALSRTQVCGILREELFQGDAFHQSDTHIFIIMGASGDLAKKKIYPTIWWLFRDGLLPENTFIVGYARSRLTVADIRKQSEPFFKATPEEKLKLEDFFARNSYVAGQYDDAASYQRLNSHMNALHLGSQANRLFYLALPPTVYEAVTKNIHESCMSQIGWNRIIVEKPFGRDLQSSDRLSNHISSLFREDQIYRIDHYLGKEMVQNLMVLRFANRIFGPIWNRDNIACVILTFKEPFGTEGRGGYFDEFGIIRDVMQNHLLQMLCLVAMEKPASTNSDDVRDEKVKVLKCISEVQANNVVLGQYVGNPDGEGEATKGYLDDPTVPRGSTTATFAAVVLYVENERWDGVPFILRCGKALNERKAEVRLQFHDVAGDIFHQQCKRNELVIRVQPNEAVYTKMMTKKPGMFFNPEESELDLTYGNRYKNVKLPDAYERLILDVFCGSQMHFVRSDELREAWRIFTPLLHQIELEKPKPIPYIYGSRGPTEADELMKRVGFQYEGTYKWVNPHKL

[12] = molecular target: T2, Mannose-6-phosphate isomerase; assay: MPI inhibition at elevated mannose 6-phosphate – biochemical, fluorescence intensity, high mannose 6-phosphate, primary screen (AID 1220)
[13] = molecular target: T5, Long-chain-fatty-acid--AMP ligase FadD28 (Mycobacterium tuberculosis, UniProt P9WQ59); assay: Fluorescence polarization aasay to screen for inhibitors that compete for the binding of FadD28 to a bisubstrate Measured in Biochemical System Using Plate Reader - 2147-01_Inhibitor_Dose_CherryPick_Activity.; type: functional, Mycobacterium tuberculosis H37Rv
T5 sequence (P9WQ59 whole entry): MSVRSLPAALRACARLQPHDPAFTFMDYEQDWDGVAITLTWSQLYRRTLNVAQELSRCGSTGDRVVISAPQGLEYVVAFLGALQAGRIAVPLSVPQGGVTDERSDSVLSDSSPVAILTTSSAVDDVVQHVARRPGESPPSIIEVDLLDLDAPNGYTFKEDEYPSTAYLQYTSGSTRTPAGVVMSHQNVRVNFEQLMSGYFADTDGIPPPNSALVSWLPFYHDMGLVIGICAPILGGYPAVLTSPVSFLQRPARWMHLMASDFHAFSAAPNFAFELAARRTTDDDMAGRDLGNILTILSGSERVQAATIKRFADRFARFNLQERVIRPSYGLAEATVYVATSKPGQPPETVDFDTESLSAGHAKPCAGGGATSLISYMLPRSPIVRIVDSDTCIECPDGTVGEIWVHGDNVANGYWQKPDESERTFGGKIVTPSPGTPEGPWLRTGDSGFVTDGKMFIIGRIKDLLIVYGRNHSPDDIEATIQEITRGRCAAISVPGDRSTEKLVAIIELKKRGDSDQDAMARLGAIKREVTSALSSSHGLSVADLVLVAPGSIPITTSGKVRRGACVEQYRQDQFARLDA

Genome polyprotein = Genome polyprotein (dengue virus type 2, UniProt P29990); assay: flavivirus cap methylation enzyme inhibition – biochemical, confirmation dose response, primary screen (AID 588689); type: functional
Genome polyprotein, sequence (P29990 2492-3391 limits assumed): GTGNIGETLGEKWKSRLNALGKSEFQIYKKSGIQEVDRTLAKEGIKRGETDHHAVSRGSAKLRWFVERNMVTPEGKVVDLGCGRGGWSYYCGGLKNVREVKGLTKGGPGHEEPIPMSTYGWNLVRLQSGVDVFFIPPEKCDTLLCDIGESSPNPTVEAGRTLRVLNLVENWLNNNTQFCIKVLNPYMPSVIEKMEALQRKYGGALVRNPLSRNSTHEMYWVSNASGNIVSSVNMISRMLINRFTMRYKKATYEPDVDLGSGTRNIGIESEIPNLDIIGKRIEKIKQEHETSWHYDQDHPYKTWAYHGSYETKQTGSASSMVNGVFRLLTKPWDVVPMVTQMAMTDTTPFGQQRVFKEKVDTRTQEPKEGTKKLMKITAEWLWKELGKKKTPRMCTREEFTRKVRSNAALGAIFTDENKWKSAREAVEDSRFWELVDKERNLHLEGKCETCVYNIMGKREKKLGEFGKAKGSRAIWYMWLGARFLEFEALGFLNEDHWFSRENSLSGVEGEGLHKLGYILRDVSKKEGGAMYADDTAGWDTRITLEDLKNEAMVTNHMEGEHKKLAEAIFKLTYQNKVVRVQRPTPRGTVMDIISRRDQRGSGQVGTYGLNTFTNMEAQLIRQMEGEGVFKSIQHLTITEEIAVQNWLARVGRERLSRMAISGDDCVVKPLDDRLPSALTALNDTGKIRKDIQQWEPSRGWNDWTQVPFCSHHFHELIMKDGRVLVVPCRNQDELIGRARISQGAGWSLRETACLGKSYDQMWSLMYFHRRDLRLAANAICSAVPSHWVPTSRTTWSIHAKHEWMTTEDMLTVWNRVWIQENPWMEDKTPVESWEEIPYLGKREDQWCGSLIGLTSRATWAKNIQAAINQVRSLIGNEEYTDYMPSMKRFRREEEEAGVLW

Hexokinase HKDC1 = molecular target: T6, Hexokinase HKDC1 (Homo sapiens, UniProt Q2TB90); assay: inhibition of HKDC1 glucose phosphorylation – biochemical, W721R variant, dose response (AID 504729); type: functional
T6 sequence (Q2TB90 whole entry): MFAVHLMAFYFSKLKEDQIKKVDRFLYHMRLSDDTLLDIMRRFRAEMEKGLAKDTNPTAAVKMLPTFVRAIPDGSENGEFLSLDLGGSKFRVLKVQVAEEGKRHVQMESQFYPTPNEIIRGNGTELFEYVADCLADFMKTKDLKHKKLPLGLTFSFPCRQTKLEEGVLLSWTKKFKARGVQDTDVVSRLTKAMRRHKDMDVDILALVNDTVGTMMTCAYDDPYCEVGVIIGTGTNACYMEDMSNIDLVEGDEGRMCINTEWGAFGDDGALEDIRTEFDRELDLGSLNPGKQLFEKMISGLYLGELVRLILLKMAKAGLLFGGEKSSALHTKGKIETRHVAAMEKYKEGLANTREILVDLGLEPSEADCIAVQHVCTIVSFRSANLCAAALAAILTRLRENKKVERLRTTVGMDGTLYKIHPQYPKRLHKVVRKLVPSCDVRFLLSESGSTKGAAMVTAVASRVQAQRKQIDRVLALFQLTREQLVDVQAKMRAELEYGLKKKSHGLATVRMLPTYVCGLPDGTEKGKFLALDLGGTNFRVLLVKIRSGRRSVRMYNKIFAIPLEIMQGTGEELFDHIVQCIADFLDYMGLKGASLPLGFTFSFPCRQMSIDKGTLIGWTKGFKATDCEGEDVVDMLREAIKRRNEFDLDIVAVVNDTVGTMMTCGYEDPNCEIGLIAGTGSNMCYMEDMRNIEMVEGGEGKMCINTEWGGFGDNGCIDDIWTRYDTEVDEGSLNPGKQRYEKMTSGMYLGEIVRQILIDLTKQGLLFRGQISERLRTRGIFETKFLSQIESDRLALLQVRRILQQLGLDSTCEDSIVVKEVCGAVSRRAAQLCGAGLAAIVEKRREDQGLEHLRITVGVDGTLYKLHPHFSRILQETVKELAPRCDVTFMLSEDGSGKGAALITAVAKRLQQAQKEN

## COc1ccc2c3c([nH]c2c1)C(C)N(CCC(=O)NN)CC3 (centres undefined)
[1]
  AC50: 1.45 µM (active)

## c1cncc(-c2cccnc2)c1
Cytochrome P450 2C19
  AC50: inconclusive
Cytochrome P450 1A2
  AC50: 15.8 µM (inconclusive)
Cytochrome P450 3A4
  AC50: inconclusive

## Cc1cc(-n2sc3ccccc3c2=O)c2ccccc2n1
Phosphomannomutase 2
  IC50: > 100 µM (inactive)
[2]
  IC50: > 50 µM (inactive)

## CCc1ccc(C(c2ccc(CC)cc2)C(Cl)Cl)cc1
[3]
  AC50: 22.4 µM (inconclusive)

## c1ccc2c(c1)OCCOCCOCCOCCOCCOc1ccccc1OCCOCCOCCO2
[4]
  IC50: 2.89 µM (active)
[5]
  IC50: 2.76 µM (active)
[6]
  EC50: 12.5 µM (active)
[7]
  IC50: 10.4 µM (active)
[8]
  IC50: 5.48 µM (active)

## COc1ccc(OC)c(-c2csc(NC(=O)c3ccc(OCC4CCCO4)cc3)n2)c1 (centres undefined)
[4]
  IC50: 2.4 µM (active)
[8]
  IC50: 2.19 µM (active)

## O=c1c2ccccc2nc(/C=C/c2ccc(O)cc2)n1CCc1ccccc1
Phospholipase A2
  IC50: 12.2 µM (active)
Cysteine protease ATG4B
  IC50: 17.2 µM (active)

## Cc1ccc(-n2c(SCC(=O)N/N=C/c3c(C)nn(-c4ccccc4)c3C)nc3ccccc3c2=O)cc1
[9]
  IC50: > 66 µM (inactive)
Phospholipase A2
  IC50: 1.86 µM (active)
Cysteine protease ATG4B
  IC50: 14.2 µM (active)
[10]
  IC50: > 66 µM (inactive)

## COc1ccc(-n2c(=S)[nH]c3c(sc(=S)n3-c3ccccc3)c2=O)c(OC)c1
[11]
  IC50: > 80 µM (inactive)
[12]
  IC50: 37.6 µM (active)

## Clc1ccc(/N=c2\ssnc2Cl)cc1Cl
Phosphomannomutase 2
  IC50: 88.6 µM (active)
[2]
  IC50: 16.9 µM (active)

## COc1ccccc1C(=O)N1CCN(c2ccccn2)CC1
Cytochrome P450 3A4
  AC50: inconclusive

## Nc1ccc(S(=O)(=O)c2cc(O)c3ccccc3c2O)cc1
[11]
  IC50: > 80 µM (inactive)
[13]
  AC50: > 100 µM (inactive)
Genome polyprotein
  IC50: 5.47 µM (active)
Hexokinase HKDC1
  IC50: 18.1 µM (active)
